From patent US20220024851A1, “CRYSTALLINE FORMS OF MULTICYCLIC COMPOUNDS AND USES THEREOF” (Convelo Therapeutics, Inc., priority 2018, published 2022) come the findings set out here.

Type in all cases: physicochemical
Data set [1] in a line: Thermogravimetric analysis (TGA), thermal decomposition. The following applies: for Decomposition onset: TGA, heated under nitrogen. The protocol: TGA is a method of thermal gravimetric analysis in which changes in physical and chemical properties of a material are measured as a function of increasing temperature (with constant heating rate) or as a function of time (with constant temperature and/or constant mass loss). TGA can provide information about physical phenomena, such as second-order phase transitions, or about chemical phenomena, such as desolvation and/or decomposition.
TG analyses described herein were performed using a Mettler Toledo TGA/DSC3+ analyzer. Balance check was performed using calcium oxalate, and temperature calibration was performed using indium, tin, and zinc. The sample was placed in an aluminum pan. The sample was sealed, the lid pierced, then inserted into the TG furnace. The furnace was heated under nitrogen.

Data set [2] is described as follows: Dynamic vapor sorption (DVS) / hygroscopicity. The settings on record: for Desorption, hysteresis and form change after moisture sorption-desorption: moisture sorption-desorption cycles, XRPD. The protocol:
The crystalline forms provided can be additionally characterized by dynamic vapor sorption (DVS), wherein a sample is subjected to varying conditions of humidity and temperature, and the response of the sample is measured gravimetrically. The result of a DVS analysis particularly can be a dual curve providing sample weight percent as a function of relative humidity (RH) over time, a dual curve providing sample water content as a function of RH over time, a curve providing weight percent in relation to RH, or a curve providing water content in relation to RH. Equipment useful for measuring such data is known in the art, and any such equipment can be used to measure the compounds according to the present invention. In certain embodiments, DVS analysis can be carried out by scanning at a series of specific RH values. Thus, specific crystalline forms according to the invention may be identified and described in relation to the representative graph and/or the approximate peaks obtained in DVS analysis, particularly scanning from 0% to 95% RH with a step interval of 5% or 10% RH.
Hygroscopicities of the materials described in the present disclosure are classified according to Table 1
DVS data were collected on a VTI SGA-100 Vapor Sorption Analyzer. NaCl and PVP were used as calibration standards. Samples were not dried prior to analysis. Sorption and desorption data were collected over a range from 5% to 95% RH at 10% RH increments under a nitrogen purge. The equilibrium criterion used for analysis was less than 0.0100% weight change in 5 minutes with a maximum equilibration time of 3 hours. Data were not corrected for the initial moisture content of the samples.

Data set [3] in a line: Aqueous kinetic solubility by aliquot addition method. The settings on record: water; for Kinetic Solubility / solubility kinetic: ambient temperature, visual dissolution. The text has this: Generated solids were typically observed by polarized light microscopy and, if crystalline (i.e. display birefringence and extinction), analyzed by XRPD. The XRPD patterns were compared to each other and to available reference patterns of salt formers. If unique by XRPD, the materials were further analyzed by ^1H NMR, TGA, DSC, and DVS. Kinetic solubilities of selected materials were estimated by aliquot addition method. Equilibrium solubilities were estimated gravimetrically using supernatants from suspensions equilibrated at ambient temperature for approximately 7-10 days.
Weighed samples of material were treated with aliquots of water at ambient temperature. Samples were typically sonicated between additions to facilitate dissolution. Complete dissolution was observed through visual inspection. Solubilities were calculated based on the total amount of solvent added to achieve complete dissolution and may be greater than the value reported due to incremental solvent addition and the inherent kinetics of dissolution. If dissolution was not observed, values are reported as “less than”. If complete dissolution was observed upon the first aliquot of solvent, values are reported as “greater than”.
Kinetic solubility was estimated by aliquot addition method, and dissolution was judged by visual observations. If dissolution was not observed, values are reported as “less than.” If complete dissolution was observed upon the first aliquot of solvent, values are reported as “greater than.” Kinetic solubility of selected salts is presented in Table 8.

Where [4] appears, read: upon increase of RH / entire RH range.

Counter-ions that a name gives are not always drawn.

`CCN(C/C=C\c1ccc(C2CCCCC2)c(Cl)c1)C1CCCCC1.O=S(=O)(O)c1ccccc1` [Besylate salt, Besylate Salt of Cis-N-cyclohexyl-N-ethyl-3-(3-chloro-4-cyclohexylphenyl)prop-2-enylamine]: the Decomposition onset in data set [1] was 274 °C. Also, the DVS weight gain entry in data set [2] (5-85% RH) is “about 0.88%”; in data set [2] (85-95% RH), “about 0.85%”. For the same molecule, the “Desorption, hysteresis and form change after moisture sorption-desorption” value (“Desorption, hysteresis and form change” for short) in data set [2] is “complete desorption without form change and with almost no hysteresis”. In addition, the Hygroscopicity result in data set [2] (setting [4]) is recorded as “limited hygroscopicity”. For the same molecule, the “Kinetic Solubility” value in data set [3] was under 600 µg/mL; in data set [3] (listed as Besylate slat), under 1000 µg/mL.

`CCN(C/C=C\c1ccc(C2CCCCC2)c(Cl)c1)C1CCCCC1.O=S(=O)(O)CCS(=O)(=O)O` [Edisylate salt, Edisylate Salt of Cis-N-cyclohexyl-N-ethyl-3-(3-chloro-4-cyclohexylphenyl)prop-2-enylamine]: the Decomposition onset in data set [1] amounted to 260 °C. The DVS weight gain entry in data set [2] (5-75% RH) is recorded as “about 0.35%”; in data set [2] (75-95% RH), “about 18.55%”. Moreover, the Hygroscopicity result is “significant hygroscopicity and deliquesces” in data set [2] (above 75% RH); “non-hygroscopic” in data set [2] (below 75% RH). For the same molecule, the “Desorption, hysteresis and form change” value in data set [2] is “form change to a highly disordered material”.

In turn, `CCN(C/C=C\c1ccc(C2CCCCC2)c(Cl)c1)C1CCCCC1.CCS(=O)(=O)O` [Esylate salt, Esylate Salt of Cis-N-cyclohexyl-N-ethyl-3-(3-chloro-4-cyclohexylphenyl)prop-2-enylamine] showed a Decomposition onset in data set [1] of 268 °C. For the same molecule, the DVS weight gain entry in data set [2] (5-85% RH) is on record as “about 0.35%”; in data set [2] (5 to 95% RH), “about 0.9 wt %”; in data set [2] (85-95% RH), 0.51%. The “Desorption, hysteresis and form change” value in data set [2] is “complete desorption without hysteresis or form change”. In data set [2] (setting [4]), the Hygroscopicity entry is on record as “limited hygroscopicity”. In addition, the kinetic solubility in data set [3] is 30000 µg/mL. The “fold more soluble than all other crystalline salts isolated (kinetic solubility)” value in data set [3] (vs other crystalline salts) is recorded as “more than 30 fold”.

As to `CCN(C/C=C\c1ccc(C2CCCCC2)c(Cl)c1)C1CCCCC1` [Salicylate salt, Salicylate Salt of Cis-N-cyclohexyl-N-ethyl-3-(3-chloro-4-cyclohexylphenyl)prop-2-enylamine], in data set [1], the Thermal stability result is “thermally stable”. Also, the Decomposition onset in data set [1] is 212 °C. The DVS weight gain result is “about 0.04%” in data set [2] (5-95% RH) and “about 0.04 wt %” in data set [2] (5 to 95% RH). Besides, the Hygroscopicity entry is given as “non-hygroscopic” in data set [2] (setting [4]) and “lack of hygroscopicity” in data set [2] (upon increase of RH / entire RH range, listed as salicylate). The molecule also displayed a solubility (kinetic) in data set [3] of under 1000 µg/mL.

Molecule `CCN(C/C=C\c1ccc(C2CCCCC2)c(Cl)c1)C1CCCCC1.O=C(O)c1ccc2ccccc2c1O` [Xinafoate salt, Xinafoate Salt of Cis-N-cyclohexyl-N-ethyl-3-(3-chloro-4-cyclohexylphenyl)prop-2-enylamine] gave a Decomposition onset in data set [1] of 146 °C. The results for the DVS weight gain result in data set [2] (5-85% RH) and in data set [2] (85-95% RH) were “about 0.88%” and “about 0.85%”, respectively. In addition, the Hygroscopicity result in data set [2] (above 65% RH) is given as “limited hygroscopicity”; in data set [2] (below 65% RH), “non-hygroscopic”. Further, the “Desorption, hysteresis and form change” value in data set [2] is recorded as “A form change is suggested”.
